From patent publication US20180244660A1, “CYCLOPROPYLDERIVATIVES AND THEIR USE AS KINASE INHIBITORS” (Karyopharm Therapeutics Inc., priority 2015, published 2018)
Read-outs that look alike come from different tables or passages of the source.

Experiments:
[1] = test system: 3T3 cells; experiment: MTT cell proliferation assay, 3T3 cells; type: cell-based, mouse; details: 3T3 fibroblast cells, incubation approximately 64-72 hours
Protocol: (§1) The MTT cell proliferation assay was used to study the cytotoxic properties of the compounds. The assay was performed according to the method described by Roche Molecular Biochemicals, with minor modifications. The assay is based on the cleavage of the tetrazolium salt, MTT, in the presence of an electron-coupling reagent. The water-insoluble formazan salt produced must be solubilized in an additional step. Cells grown in a 96-well tissue culture plate were incubated with the MTT solution for approximately 4 hours. After this incubation period, a water-insoluble formazan dye formed. After solubilization, the formazan dye was quantitated using a scanning multi-well spectrophotometer (ELISA reader). […] The cells were seeded at 5,000-10,000 cells in each well of 96-well plate in 100 μL of fresh culture medium and were allowed to attach overnight. The stock solutions of the compounds were diluted in 100 μL cell culture medium to obtain eight concentrations of each test compound, ranging from 1 nM to 30 μM. […] All optical densities were measured at 490 nm using a Vmax Kinetic Microplate Reader (Molecular Devices). In most cases, the assay was performed in duplicate and the results were presented as a mean percent inhibition to the negative control+SE. The following formula was used to calculate the percent of inhibition: Inhibition (%)=(1−(ODo/OD))×100.
(§2) The compounds were tested against MS751, Z138 and 3T3 cells. The MS751 cell line is derived from a metastasis to lymph node of human cervix from a patient diagnosed with squameous cell carcinoma of the cervix. The Z138 cell line is a mature B-cell acute lymphoblastic leukemia cell line derived from a patient with chronic lumphocytic leukemia. 3T3 cells are standard fibroblast cells; they were originally isolated from Swiss mouse embryo tissue.

[2] = test system: MS751 cells; experiment: MTT cell proliferation assay, MS751 cells; type: cell-based, human; details: incubation approximately 64-72 hours, read-out: MTT Assay IC50 MS 751
Protocol: as §1, §2

[3] = test system: Z138 cells; experiment: MTT cell proliferation assay, Z138 cells; type: cell-based, human
Protocol: as §1, §2

[4] = Homo sapiens, Z-138, incubation approximately 64-72 hours

Row | Molecule | IC50 ([1]; Mus musculus, NIH3T3) [µM] | IC50 ([2]; Homo sapiens) [µM] | IC50 [3, 4] [µM] | IC50 [1] [µM] | IC50 [2] [µM] | IC50 ([3]; incubation approximately 64-72 hours, read-out: MTT Assay IC50 Z-138) [µM]
1 | Nc1ccc([C@H]2C[C@@H]2C(=O)NCc2cc3cc(-c4ccc(C(=O)N5CC(F)C5)cc4)cc(-c4ccc(F)cc4)c3o2)cn1 [Compound K020, (1S,2S)-2-(6-aminopyridin-3-yl)-N—((5-(4-(3-fluoroazetidine-1-carbonyl)phenyl)-7-(4-fluorophenyl)benzofuran-2-yl)methyl)cyclopropanecarboxamide] | 1 to 5 | < 1 | < 1 |  |  | 
2 | Nc1ccc([C@H]2C[C@@H]2C(=O)NCc2nc3cc(-c4ccc(C(=O)N5CCC(F)(F)CC5)cc4)cc(-c4ccc(F)cc4)c3o2)cn1 [Compound K021, (1S,2S)-2-(6-aminopyridin-3-yl)-N—((5-(4-(4,4-difluoropiperidine-1-carbonyl)phenyl)-7-(4-fluorophenyl)benzo[d]oxazol-2-yl)methyl)cyclopropanecarboxamide] | > 10 | > 10 | > 10 |  |  | 
3 | Nc1ccc([C@H]2C[C@@H]2C(=O)NCc2cc3cc(-c4ccc(C(=O)N5CCC(F)(F)CC5)cc4)cc(-c4ccc(F)cc4)c3[nH]2)cn1 [Compound K022, (1S,2S)-2-(6-aminopyridin-3-yl)-N—((5-(4-(4,4-difluoropiperidine-1-carbonyl)phenyl)-7-(4-fluorophenyl)-1H-indol-2-yl)methyl)cyclopropanecarboxamide] | > 10 | 1 to 5 | 5 to 10 |  |  | 
4 | Cn1c(CNC(=O)[C@H]2C[C@@H]2c2ccc(N)nc2)cc2cc(-c3ccc(C(=O)N4CCC(F)(F)CC4)cc3)cc(-c3ccc(F)cc3)c21 [Compound K023, (1S,2S)-2-(6-aminopyridin-3-yl)-N—((5-(4-(4,4-difluoropiperidine-1-carbonyl)phenyl)-7-(4-fluorophenyl)-1-methyl-1H-indol-2-yl)methyl)cyclopropanecarboxamide] | > 10 | 1 to 5 | 1 to 5 |  |  | 
5 | Nc1ccc([C@H]2C[C@@H]2C(=O)NCc2cc3cc(-c4ccc(C(=O)N5CC(F)C5)cc4F)cc(-c4ccc(F)cc4)c3o2)cn1 [Compound K024, (1S,2S)-2-(6-aminopyridin-3-yl)-N—((5-(2-fluoro-4-(3-fluoroazetidine-1-carbonyl)phenyl)-7-(4-fluorophenyl)benzofuran-2-yl)methyl)cyclopropanecarboxamide] | < 1 | < 1 | < 1 |  |  | 
6 | Nc1ccc([C@H]2C[C@@H]2C(=O)NCc2cnc(-c3ccc(-c4ccc(C(=O)N5CC(F)(F)C5)cc4)cc3C(F)(F)F)o2)cn1 [Compound K025, (1S,2S)-2-(6-aminopyridin-3-yl)-N—((2-(4′-(3,3-difluoroazetidine-1-carbonyl)-3-(trifluoromethyl)biphenyl-4-yl)oxazol-5-yl)methyl)cyclopropanecarboxamide] | > 10 | 1 to 5 | 1 to 5 |  |  | 
7 | [2H]c1c(CNC(=O)[C@H]2C[C@@H]2c2ccc(N)nc2)oc2c(-c3ccc(F)cc3)cc(-c3ccc(C(=O)N4CC(F)C4)cc3)cc12 [Compound K026, (1S,2S)-2-(6-aminopyridin-3-yl)-N—((3-deutero-5-(4-(3-fluoroazetidine-1-carbonyl)phenyl)-7-(4-fluorophenyl)benzofuran-2-yl)methyl)cyclopropanecarboxamide] | 1 to 5 | < 1 | < 1 |  |  | 
8 | Nc1ccc([C@H]2C[C@@H]2c2nc(-c3cc4cc(-c5ccc(C(=O)N6CC(F)C6)cc5)cc(-c5ccc(F)cc5)c4o3)co2)cn1 [Compound K029, (4-(2-(2-((1S,2S)-2-(6-aminopyridin-3-yl)cyclopropyl)oxazol-4-yl)-7-(4-fluorophenyl)benzofuran-5-yl)phenyl)(3-fluoroazetidin-1-yl)methanone] | > 10 | 1 to 5 | 1 to 5 |  |  | 
9 | (1S,2S)-2-(6-aminopyridin-3-yl)-N—((7-chloro-5-(4-(3,3-difluoroazetidine-1-carbonyl)phenyl)-2,3-dihydrobenzofuran-2-yl)methyl)cyclopropanecarboxamide [Compound K028] |  |  |  | > 10 | < 1 | < 1
